Where a name gives a salt, the structure may show the parent alone.
Assays:
[1] = test system: second-degree burn wounds; assay: second-degree burn wound model, epidermal migration (epithelization) assessment; type: in vivo, Swine; conditions: for Percent of wounds completely epithelized / number of wounds healed (completely epithelized) over the number of wounds assessed: pig
Description: The ability of selegiline and desmethylselegiline to assist in the healing of burns was tested using a second-degree burn wound model. In second-degree burns, the entire surface of the epidermis is destroyed. An epidermal covering is regenerated from the remaining epithelial and epidermal cells adjacent to the burns. This phase of the healing process is called epithelization.
Swine were used for the experimental research animal because their skin has many morphological similarities to human skin. Seven young female specific pathogen free (SPF:Ken-O-Kaw Farms, Windsor, Ill.) pigs weighing 25-30 kg were kept in house for two weeks prior to initiating the experiment. These animals were fed a basal diet ad libitum and housed individually in facilities with controlled temperature (19-21° C.) and lights (12 h/12 h LD).
Experimental animals were clipped with standard animal clippers on the day of the experiment. The skin on the back and both sides of the animal was prepared for wounding by washing with a non-antibiotic soap and sterile water. Each animal was anesthetized i.m. with ketamine-HCl (20 mg/kg), xylazine (2 mg/kg) and atropine (0.05 mg/kg), followed by mask inhalation of an isoflurane and oxygen combination. Five specifically designed cylindrical brass rods weighing 358 g each were heated in a boiling water bath to 100° C. A rod was removed from the water bath and wiped dry before being applied to the skin surface to prevent water droplets from creating a steam burn on the skin. The brass rod was held at a vertical position on the skin for six seconds with all pressure being supplied by gravity in order to make a burn 8.5 mm diameter×0.8 mm deep. Immediately after burning, the roof of the burn blister was removed with a sterile spatula. The burn wounds were made approximately 2 cm from each other.
Approximately 90 burn wounds were made on the anterior two-thirds of the animal. The posterior third of the animal cannot be used because of anatomical differences in burn wound healing (a more rapid healing of burns has been observed at that position).
A total of seven animals were used and a total of fifteen wounds per treatment group were analyzed on each of days 7-12 after wounding. Treatments were coded to maintain blind study compliance. The burn wounds were treated with 25 ug of test article (enough to cover each wound). Treatments were allowed to penetrate into the sites for at least a 20 minute time period. Each treatment was applied within 20 minutes of blister removal and treatment occurred once a day for the first five days.
Beginning on day seven after wounding (day 0) and each day thereafter for four to six days, five burn wounds and the surrounding normal skin from each treatment area were excised using an electrokeratome. Any specimens that were not excised intact were discarded. The excised wounds and the surrounding normal skin were incubated in 0.5 M NaBr for 24 hours at 37° C. After incubation, the specimens were separated into epidermal and dermal sheets. The epidermis was examined macroscopically for defects in the area of the burn wounds. Epithelization was considered complete if no defect was present (healed). […] The epidermal sheet was placed on cardboard for a permanent record.
The number of wounds healed (completely epithelized) were divided by the total number of wounds sampled per day and multiplied by 100.

[2] = test system: superoxide dysmutase, catalase and glutathione peroxidase; conditions: background statement (Jenner, et al.); cited from earlier work
[3] = 10^-4M topical, day 7 after burning
[4] = 10^-4M topical, day 8 after burning
[5] = 10^-4M topical, day 9 after burning
[6] = 10^-4M topical, day 10 after burning
[7] = 10^-4M topical, day 11 after burning
[8] = 10^-4M topical, day 12 after burning
[9] = 10^-4M topical, day 13 after burning
[10] = 10^-6M topical, day 7 after burning
[11] = 10^-6M topical, day 8 after burning
[12] = 10^-6M topical, day 9 after burning
[13] = 10^-6M topical, day 10 after burning
[14] = 10^-6M topical, day 11 after burning
[15] = 10^-6M topical, day 12 after burning
[16] = 10^-6M topical, day 13 after burning
[17] = 10^-8M topical, day 7 after burning
[18] = 10^-8M topical, day 8 after burning
[19] = 10^-8M topical, day 9 after burning
[20] = 10^-8M topical, day 10 after burning
[21] = 10^-8M topical, day 11 after burning
[22] = 10^-8M topical, day 12 after burning
[23] = 10^-8M topical, day 13 after burning

C#CCN(C)[C@H](C)Cc1ccccc1 [selegiline HCl, selegiline]
initiation of epithelization compared with other treatment groups ([1]; 10^-4 M and 10^-6 M): earlier time point than all other treatment groups
Percent of wounds completely epithelized [1, 3]: (0%)
number of wounds healed (completely epithelized) over the number of wounds assessed [1, 3]:  0/15
Percent of wounds completely epithelized [1, 4]: (0%)
number of wounds healed (completely epithelized) over the number of wounds assessed [1, 4]:  0/15
Percent of wounds completely epithelized [1, 5]: (0%)
number of wounds healed (completely epithelized) over the number of wounds assessed [1, 5]:  0/15
Percent of wounds completely epithelized [1, 6]: 20%
number of wounds healed (completely epithelized) over the number of wounds assessed [1, 6]:  3/15
Percent of wounds completely epithelized ([1]; 10^-4M topical, day 10 after burning, listed as A-1): (20%)
Percent of wounds completely epithelized [1, 7]: 33%
number of wounds healed (completely epithelized) over the number of wounds assessed [1, 7]:  5/15
Percent of wounds completely epithelized ([1]; 10^-4M topical, day 11 after burning, listed as A-1): (33%)
Percent of wounds completely epithelized [1, 8]: 33%
number of wounds healed (completely epithelized) over the number of wounds assessed [1, 8]:  6/15
Percent of wounds completely epithelized ([1]; 10^-4M topical, day 12 after burning, listed as A-1): (40%)
Percent of wounds completely epithelized [1, 9]: 33%
number of wounds healed (completely epithelized) over the number of wounds assessed [1, 9]:  6/15
Percent of wounds completely epithelized ([1]; 10^-4M topical, day 13 after burning, listed as A-1): (40%)
Percent of wounds completely epithelized [1, 10]: (0%)
number of wounds healed (completely epithelized) over the number of wounds assessed [1, 10]:  0/15
Percent of wounds completely epithelized [1, 11]: (0%)
number of wounds healed (completely epithelized) over the number of wounds assessed [1, 11]:  0/15
Percent of wounds completely epithelized [1, 12]: (0%)
number of wounds healed (completely epithelized) over the number of wounds assessed [1, 12]:  0/15
Percent of wounds completely epithelized [1, 13]: 20%
number of wounds healed (completely epithelized) over the number of wounds assessed [1, 13]:  3/15
Percent of wounds completely epithelized ([1]; 10^-6M topical, day 10 after burning, listed as A-2): (20%)
Percent of wounds completely epithelized [1, 14]: 33%
number of wounds healed (completely epithelized) over the number of wounds assessed [1, 14]:  5/15
Percent of wounds completely epithelized ([1]; 10^-6M topical, day 11 after burning, listed as A-2): (33%)
Percent of wounds completely epithelized [1, 15]: 40%
number of wounds healed (completely epithelized) over the number of wounds assessed [1, 15]:  6/15
Percent of wounds completely epithelized ([1]; 10^-6M topical, day 12 after burning, listed as A-2): (40%)
Percent of wounds completely epithelized [1, 16]: 40%
number of wounds healed (completely epithelized) over the number of wounds assessed [1, 16]:  6/15
Percent of wounds completely epithelized ([1]; 10^-6M topical, day 13 after burning, listed as A-2): (40%)
Percent of wounds completely epithelized [1, 17]: (0%)
number of wounds healed (completely epithelized) over the number of wounds assessed [1, 17]:  0/15
Percent of wounds completely epithelized [1, 18]: (0%)
number of wounds healed (completely epithelized) over the number of wounds assessed [1, 18]:  0/15
Percent of wounds completely epithelized [1, 19]: (0%)
number of wounds healed (completely epithelized) over the number of wounds assessed [1, 19]:  0/15
Percent of wounds completely epithelized [1, 20]: (0%)
number of wounds healed (completely epithelized) over the number of wounds assessed [1, 20]:  0/15
Percent of wounds completely epithelized [1, 21]: None
number of wounds healed (completely epithelized) over the number of wounds assessed [1, 21]:  0/15
Percent of wounds completely epithelized ([1]; 10^-8M topical, day 11 after burning, listed as A-3): (0%)
Percent of wounds completely epithelized [1, 22]: 7%
number of wounds healed (completely epithelized) over the number of wounds assessed [1, 22]:  1/15
Percent of wounds completely epithelized ([1]; 10^-8M topical, day 12 after burning, listed as A-3): (7%)
Percent of wounds completely epithelized [1, 23]: Thirty-eight
number of wounds healed (completely epithelized) over the number of wounds assessed [1, 23]:  6/16
Percent of wounds completely epithelized ([1]; 10^-8M topical, day 13 after burning, listed as A-3): (38%)
wound crust colour during absorption of applied agent ([1]; first three days of treatment, normal again after 15 minutes): more pronounced
activity of the endogenous anti-oxidants superoxide dysmutase, catalase and glutathione peroxidase [2]: increase the activity

From patent publication US6461619B1 (Somerset Pharmaceuticals, Inc., priority 1998, dated 2002)
